The test system of one assay is protein kinases. The assay is described as follows: simultaneous detection of the activity of a plurality of protein kinases on a single gel (lysate of v-src transformed NIH3T3 cells, labeled ATP, SDS-PAGE and autoradiography). The class given is biochemical. The settings on record: supernatant of v-src transformed NIH3T3 cells; relative to rottlerin, typically used as a protein kinase inhibitor. Here is the method: Action relative to a plurality of protein kinases was investigated in accordance with the method for simultaneous detection of the activity of a plurality of protein kinases on a single gel as described in Anal. Biochem. 212:106–110, 1993.
More specifically, NIH3T3 cells transformed with v-src were disintegrated with a hypotonic buffer and denucleated by gentle centrifugation. Various types of […] (including 1 μM PMA (phorbolmyristate acetate), 20 μM cyclic adenosine-3′,5′-monophosphate (cAMP)) were then added to the centrifuged supernatant. Moreover, 3-isopropyl-2-isopropylimino-1,3-selenazolidin-4-one of chemical formula 4 and labeled adenosine triphosphate (ATP) were added and the mixture was allowed to react. After stopping the reaction, the phosphorylated protein was analyzed by SDS-PAGE and autoradiography.

In assay [1] the test system is human HT-1080 fibrosarcoma cells. Description: growth inhibitory action against human HT-1080 fibrosarcoma cells (crystal violet method). Type of assay: cell-based. The settings on record: HT-1080 cells; for growth inhibitory action on HT-1080 fibrosarcoma cells (in words): 24 hours, summary of Table 1; for IC50: Homo sapiens, 24 hours culture with test drug, DMEM/F12 with 0.1% bovine serum albumin. As to the method:
The growth inhibitory action of the selenazolin derivatives of chemical formulas 4 through 12 against human HT-1080 fibrosarcoma cells was investigated. HT-1080 fibrosarcoma cells growing in Eagle's Minimum Essential Medium (EMEM) containing 10% fetal calf serum within an incubator having an atmosphere of 5% CO2 and 95% air maintained at a temperature of 37 degrees Celsius were inoculated into a 96-well plate at the rate of 1×10^4 cells/well. After 48 hours, the medium was replaced with Dulbecco's Modified Eagle's Medium (DMEM)/F12 medium containing 0.1% bovine serum albumin, and the test drugs at each concentration (0.1 μM, 100 μM) were added, followed by culturing for 24 hours. Growth inhibitory action on human HT-1080 fibrosarcoma cells was determined from the staining density following staining using the crystal violet method.

Structures are written as SMILES.

Consider `CC(C)N=C1[Se]CC(=O)N1C(C)C` [Chemical Formula 4, 3-isopropyl-2-isopropylimino-1,3-selenazolidin-4-one], for which, in the assay with protein kinases, the “inhibitory activity compared with rottlerin” value is given as not below 20 times. In addition, in assay [1], the “growth inhibitory action on HT-1080 fibrosarcoma cells (in words)” value (from here on “growth inhibitory action”) is given as “potent growth inhibitory action” and the IC50 turned out to be 3.2 µM. `O=C1C[Se]C(=NC2CCCCC2)N1C1CCCCC1` [Chemical Formula 5, 3-cyclohexyl-2-cyclohexylimino-1,3-selenazolidin-4-one]: the IC50 in assay [1] was more than 100 µM.

In assay [1], `CC(C)N=C1[Se]C(C)C(=O)N1C(C)C` (stereo not shown) [Chemical Formula 6, 3-isopropyl-2-isopropylimino-5-methyl-1,3-selenazolidin-4-one] gave an IC50 of 89 µM.

Regarding `CCC1[Se]C(=NC(C)C)N(C(C)C)C1=O` (stereo not shown) [Chemical Formula 7, 3-isopropyl-2-isopropylimino-5-ethyl-1,3-selenazolidin-4-one], in assay [1], the “growth inhibitory action” value was “potent growth inhibitory action” and the IC50 amounted to 2.5 µM. With `CC(C)N=C1[Se]C(C)(C)C(=O)N1C(C)C` [Chemical Formula 8, 3-isopropyl-2-isopropylimino-5,5-dimethyl-1,3-selenazolidin-4-one], 98 µM corresponded to half-maximal inhibition in assay [1] (IC50).

On to `CC(C)N=C1[Se]C(c2ccccc2)C(=O)N1C(C)C` (stereo not shown) [Chemical Formula 9, 3-isopropyl-2-isopropylimino-5-phenyl-1,3-selenazolidin-4-one], for which the IC50 in assay [1] was more than 100 µM. Turning to `CC(C)(C)N=C1[Se]CC(=O)N1C(C)(C)C` [Chemical Formula 10, 3-t-butyl-2-t-butylimino-1,3-selenazolidin-4-one], in assay [1], the “growth inhibitory action” value was “potent growth inhibitory action” and half-maximal inhibition (IC50) required 4.5 µM.

In assay [1], `Cc1ccc(N=C2[Se]CC(=O)N2c2ccc(C)cc2)cc1` [Chemical Formula 11, 3-p-tolyl-2-p-tolylimino-1,3-selenazolidin-4-one] yielded an IC50 of more than 100 µM. Still for that read-out and setting: then `Cc1ccccc1N=C1[Se]CC(=O)N1c1ccccc1C` [Chemical Formula 12, 3-o-tolyl-2-o-tolylimino-1,3-selenazolidin-4-one], with 75 µM.

The values above are taken from patent publication US7176164B2, “1,3-selenazolin derivatives and process for preparing the same” (Gifu University, priority 2001, dated 2007).
